Experimental data: publication PMC8551334 (Scientific Reports, 2021)
≈ marks a conversion by molar mass, not a printed value. Where two headings read alike, the source gives them in different places.

What was measured:
DENV-3 [1] = assay: FACS neutralization test (FNT); type: cell-based, dengue virus; settings: for FACS gating percentage (FITC-positive population): 10,000 events
Description: Vero cells were seeded in 24 well plates at a density of 1 × 10^5 cells/well and incubated overnight. The antiviral assays were done using MOI 0.5 DENV-3, and FNT was carried out 48 h post-infection. Viral infected cells were harvested by trypsinization and centrifugation (1500 rpm, 5 min). Harvested cells were washed with PBS and fixed with 250 µL of BD Cytofix/Cytoperm™ Fixation/Permeabilization solution kit with BD GolgiStop™ (BD Biosciences, USA) solution and incubated on ice for 20 min in the dark. The cells were centrifuged at 3000 rpm for 2 min and washed two times with stain buffer (PBS + 5%FBS). Staining was performed with 50 µL of anti-dengue virus type III primary antibody, clone 5D4-11 (MAB8703 Sigma-Aldrich, USA), diluted in Cytoperm/Cytowash solution at a ratio of 1:1000 and incubated for 1 h on ice. After that, the cells were washed and stained with 50 µL of FITC-conjugated secondary antibody (Sigma-Aldrich, USA) diluted in Cytoperm/Cytowash solution at a ratio of 1:1000 and incubated for 1 h on ice in the dark. The samples were analyzed in a BD FACSCalibur flow cytometer (BD Biosciences, USA) using BD Cellquest pro software. For each sample, 10,000 events were collected, and the percent reduction in the number of infected cells was calculated using the following equation. Percentageofinhibition%=(C-T)/C×100% where, C is the percentage of viral infected cells among the 10,000 events without flavonoid treatment (control). T is the percentage of infected cells among the 10,000 events with the respective flavonoid treatment.
Percent reduction in virus-infected cells was represented as the mean ± standard error of the mean (SEM) from triplicate assays determined from three independent experiments.

[2] = Cytotoxicity of flavonoids in Vero cells by MTS assay; type: cell-based, African green monkey; settings: African green monkey
Description: (§1) The cytotoxic potential of flavonoids in Vero cells was assessed by MTS assay. Briefly, confluent Vero cells in a 96 well plate were treated with different concentrations of flavonoids in triplicates with DMEM containing 2% FBS. After 2 days, 20 μL of 3-(4,5-Dimethylthiazol-2-yl)-5-(3-carboxymethoxyphenyl)-2-(4-sulfophenyl)-2H-tetrazolium (MTS) reagent (Promega, France) was added to each well. After 1 h of incubation at 37 °C, the cells were agitated, and the absorbance was measured at 490 nm in a microplate reader (Tecan, Infinite M2000, Switzerland). Maximum non-toxic dose (MNTD80) and 50% cytotoxic concentration (CC50) were calculated by non-linear regression using prism software (GraphPadPrism8, USA).
(§2) The maximum non-toxic dose (MNTD80) and 50% of inhibition (IC50) of flavonoids in Vero cells were calculated using Prism software (GraphPadPrism8, CA, USA) by applying four-parameter logistic non-linear regression model. The selectivity index (SI) was calculated as SI = CC50/IC50. Data presented are the mean ± SEM of three independent experiments. The student t-test was used to analyze the antiviral activity of flavonoids compared to a positive control (*p < 0.05, **p < 0.01, ***p < 0.001, ****p < 0.0001).

Vero cells [3] = assay: as above; type: cell-based, African green monkey; settings: 48 h; for Concentrations up to which no significant cytotoxic effects were seen: African green monkey; for MNTD80 (maximum non-toxic dose, 80% of cells viable): Vero cells, MTS assay, mean ± SEM
Description: as §1, §2

DENV-3 [4] = assay: Virucidal assay against extracellular DENV-3, FFURA (foci reduction); type: cell-based, dengue virus; settings: for IC50: extracellular DENV-3, reduction in virus foci, mean ± SEM; for Viral foci reduction at highest concentration, virucidal assay: silymarin 200 µg/mL, baicalein 100 µg/mL, baicalin 20 µg/mL, DENV-3
Description: (§3) The antiviral activity of flavonoids was determined by measuring the reduction in the number of DENV infectious foci after treatment. The antiviral assays were performed based on Zandi et al.[14] with minor modifications. Briefly, a confluent monolayer of Vero cells seeded in 24-well plates was treated with flavonoids before or after or with the virus infection and incubated for 4 days. The virus foci were visualized using immunostaining. The flavonoids' antiviral activities were determined by calculating the percentage of foci reduction (%RF) according to the following equation: Percentageofinhibition%=(C-T)/C×100% where, C is the number of foci without the flavonoid treatment (control). T is the number of foci with the respective flavonoid treatment.
(§4) After 1 h, the flavonoid-treated virus was used to infect Vero cells at 37 °C for 1 h. Then, the unabsorbed virus was removed, and the cells were washed and overlaid with 1 mL of overlay medium. After 4 days, the reduction in foci was determined by immunostaining. Another parallel experiment was carried out by replacing the overlay medium with DMEM supplemented with 2% FBS to determine the reduction in viral RNA copy number by qRT-PCR as previously described.
as §2

DENV-4 = assay: Virucidal assay against DENV-4, FFURA; type: cell-based; settings: Dengue virus, DENV4; read-out: Viral infectivity inhibition, DENV-4
Description: as §3, §4

DENV-3 [5] = assay: Entry assay; type: cell-based, dengue virus
Description: Pre-chilled DENV-3 (80 FFU/well) in the absence of flavonoids were added to the pre-chilled Vero cells and incubated at 4 °C to allow virus attachment. […] After that, the medium containing flavonoids was removed, and Vero cells were washed and treated with acidic PBS (pH 3) for 60 s to inactivate the extracellular virus. After 60 s, the acidic PBS was neutralized by alkaline PBS (pH 11) in each well. Next, cells were then washed with serum-free media and overlaid with 1 mL of overlay medium. After 4 days, the reduction in foci was determined by immunostaining.

DENV-2 = assay: Virucidal assay against DENV-2, FFURA; type: cell-based; settings: Dengue virus, DENV2; read-out: Viral infectivity inhibition, DENV-2
Description: as §3, §4

DENV-3 progeny [6] = assay: Post-infection assay, intracellular DENV-3 progeny, FFURA; type: cell-based, dengue virus; settings: for IC50: 48 h treatment, mean ± SEM, read-out: IC50 against DENV-3 progeny, FFURA
Description: as §3
(§5) To determine the activity of flavonoids in inhibiting the intracellular viral progeny, Vero cells (1 × 10^5 cells/well) in a 24-wells plate were infected with DENV-3 (MOI = 0.1) for 1 h at 37 °C. […] After 48 h, the viral supernatant was collected, and twofold dilution was used to reinfect fresh monolayer of Vero cells, and the reduction in viral titer was quantified using FFURA and qRT-PCR.
as §2

DENV-3 [7] = assay: Virucidal assay against extracellular DENV-3, qRT-PCR (viral RNA copy number); type: cell-based, dengue virus; settings: for IC50: Dengue virus, DENV3, extracellular DENV-3, reduction in viral RNA copy number, mean ± SEM
Description: (§6) Viral RNA extraction was performed using QIAamp^R Viral RNA extraction kit (QIAGEN, Germany), and viral RNA copy number was quantified using the genesig Real-Time qRT-PCR Standard Kit (PrimerDesign, UK). The reactions were in a final volume of 20 μL containing 10 μL of the master mix, 1 μL of probe/primer mix, 4 μL of nuclease-free water, and 5 μL of viral RNA template. Quantitative PCR was performed using a CFX96 Touch™ Real-Time PCR Detection System (Bio-Rad, USA.) with the following conditions: 10 min at 55 °C (reverse transcription), 2 min at 95 °C (enzyme activation) followed by 50 cycles of amplification (10 s at 95 °C, 60 s at 60 °C). The viral RNA copy number was determined based on the threshold cycles (Ct) and standard curve generated from known RNA standards.
as §4, §2

DENV-1 = assay: Virucidal assay against DENV-1, FFURA; type: cell-based; settings: Dengue virus, DENV1; read-out: Viral infectivity inhibition, DENV-1
Description: as §3, §4

DENV-3 [8] = assay: Attachment assay; type: cell-based, dengue virus
Description: Vero cells (1 × 10^5 cells/well) were grown overnight in a 24-well plate. […] After 1 h, the flavonoid-treated virus is incubated on ice for 15 min. Next, pre-chilled Vero cells were infected with the pre-chilled flavonoid-treated virus at 4 °C for 1 h to allow virus attachment. Then, the unabsorbed virus was removed, and the cells were washed and overlaid with 1 mL of overlay medium. After 4 days, the reduction in foci was determined by immunostaining.

EVA-71 = settings: cited from earlier work
DENV-3 progeny [9] = assay: Post-infection assay, intracellular DENV-3 progeny, qRT-PCR; type: cell-based, dengue virus; settings: for IC50: Dengue virus, DENV3, 48 h treatment, mean ± SEM, read-out: IC50 against DENV-3 progeny, qRT-PCR
Description: as §6, §5, §2

DENV-3 [10] = assay: Time course assay for virucidal activity; type: cell-based, dengue virus; settings: for Time taken to achieve 50% viral infectivity inhibition: co-incubation with DENV-3
Description: Vero cells (1 × 10^5 cells/well) were grown overnight in a 24-well plate. […] Cells were infected with the flavonoid-treated virus and incubated at 37 °C for 1 h. Then, the unabsorbed virus was removed, and the cells were washed and overlaid with 1 mL of overlay medium. After 4 days, the reduction in foci was determined by immunostaining.

Vero cells [11] = system: Vero cells; design: method as in Moghaddam et al. 15; settings: ref Moghaddam et al. 15; cited from earlier work
[12] = silymarin 200, baicalein 100, baicalin 20 µg/mL
[13] = Dengue virus, DENV3, post-infection assay
[14] = Dengue virus, DENV3, read-out: Maximum inhibition of intracellular viral progeny infectivity

O=c1cc(-c2ccccc2)oc2cc(O)c(O)c(O)c12 [Baicalein]
FACS gating percentage (FITC-positive population) (DENV-3 [1]; [12]): 0.44% | Percentage of inhibition of DENV-3 infected cell population (FNT) (DENV-3 [1]; MOI 0.5, 48 h post-infection, silymarin 200, baicalein 100, baicalin 20 µg/mL): 97.92% | CC50 at 48 h ([2]; Vero cells, MTS assay, 48 h, mean ± SEM, read-out: CC50 (half maximum cytotoxic concentration)): 271 ± 6.57 µg/mL (≈ 1000 µM) | Concentrations up to which no significant cytotoxic effects were seen (Vero cells [3]): ≤ 100 µg/mL | MNTD80 (maximum non-toxic dose, 80% of cells viable) (Vero cells [3]): 122.95 ± 2.37 µg/mL | IC50 (DENV-3 [4]; Dengue virus, DENV3): 12.7 ± 3.49 µg/mL (≈ 47 µM) | inhibition at 100 µg/mL (DENV-3 [4]; Dengue virus, DENV3, read-out: Viral infectivity inhibition, DENV-3): 99.68 ± 0.1% | Viral foci reduction at highest concentration, virucidal assay (DENV-3 [4]): 99.78% | inhibition at 100 µg/mL (DENV-4): 80.49 ± 0.26% | Inhibition of viral entry (DENV-3 [5]; DENV-3 into Vero cells, silymarin 200, baicalein 100, baicalin 20 µg/mL): 57.91 ± 11.65% | inhibition at 100 µg/mL (DENV-2): 97.2 ± 1.41% | IC50 (DENV-3 progeny [6]; [13]): 34.7 ± 6.71 µg/mL (≈ 128 µM) | inhibition at 100 µg/mL (DENV-3 progeny [6]; [14]): 79.7% | IC50 (DENV-3 [7]): 17.2 ± 2.48 µg/mL (≈ 63.8 µM) | inhibition at 100 µg/mL (DENV-1): 96.7 ± 2.1% | Inhibition of viral attachment (DENV-3 [8]; DENV-3 to Vero cells, silymarin 200, baicalein 100, baicalin 20 µg/mL): 95.59 ± 1.44% | Virucidal effect against EVA-71 (EVA-71; silymarin at < 1 min contact, baicalein maximum at 60 min): 60% | Period of contact (co-incubation time) needed for the virucidal effect (EVA-71; silymarin for 65% effect, baicalein for maximum of 60% effect): 60 min | IC50 (DENV-3 progeny [9]): 29.7 ± 12.8 µg/mL (≈ 110 µM) | Viral infectivity inhibition achieved at 0 min (DENV-3 [10]; 0 min co-incubation, silymarin 200, baicalein 100, baicalin 20 µg/mL): 62.45 ± 3.67% | Viral infectivity inhibition at 60 min co-incubation (maximum) (DENV-3 [10]; 60 min co-incubation, silymarin 200, baicalein 100, baicalin 20 µg/mL): 97.24% | Time taken to achieve 50% viral infectivity inhibition (DENV-3 [10]; [12]): 0 min | Co-incubation time to reach up to 75% viral infectivity inhibition (DENV-3 [10]; silymarin 200, baicalein 100 µg/mL): 15 min

O=C(O)[C@H]1O[C@@H](Oc2cc3oc(-c4ccccc4)cc(=O)c3c(O)c2O)[C@H](O)[C@@H](O)[C@@H]1O [Baicalin]
FACS gating percentage (FITC-positive population) (DENV-3 [1]; [12]): 42.35% | inhibition at 20 µg/mL (DENV-3 [1]; Dengue virus, DENV3, 48 h, read-out: Percentage of inhibition of DENV-3 infected cell population (FNT)): 31.9% | CC50 at 48 h [2]: 54.6 ± 0.76 µg/mL (≈ 122 µM) | Concentrations up to which no significant cytotoxic effects were seen (Vero cells [3]): ≤ 20 µg/mL | MNTD80 (maximum non-toxic dose, 80% of cells viable) (Vero cells [3]): 19.15 ± 0.07 µg/mL | IC50 (DENV-3 [4]; Dengue virus, DENV3): 7.38 ± 1.1 µg/mL (≈ 16.5 µM) | SI (CC50/IC50), virucidal assay, FFURA (DENV-3 [4]; extracellular DENV-3): 7.40 | Viral foci reduction at highest concentration, virucidal assay (DENV-3 [4]): 76% | CC50 (Vero cells [11]): 290.9 µg/mL (≈ 652 µM) | inhibition at 20 µg/mL (DENV-3 [5]; Dengue virus, DENV3, Vero, read-out: Inhibition of viral entry): 49.8 ± 8.78% | IC50 (DENV-3 progeny [6]; [13]): 5.31 ± 1.96 µg/mL (≈ 11.9 µM) | inhibition at 20 µg/mL (DENV-3 progeny [6]; [14]): 81% | SI (CC50/IC50) against DENV-3 progeny, FFURA (DENV-3 progeny [6]; post-infection assay): 10.29 | IC50 (DENV-3 [7]): 17.4 ± 6.51 µg/mL (≈ 39 µM) | SI (CC50/IC50), virucidal assay, qRT-PCR (DENV-3 [7]; extracellular DENV-3): 3.14 | inhibition at 20 µg/mL (DENV-3 [8]; Dengue virus, DENV3, Vero, read-out: Inhibition of viral attachment): 48.5 ± 9.1% | SI (CC50/IC50) against DENV-3 progeny, qRT-PCR (DENV-3 progeny [9]): 12.06 | IC50 (DENV-3 progeny [9]): 4.53 ± 0.62 µg/mL (≈ 10.1 µM) | inhibition at 20 µg/mL (DENV-3 [10]; Dengue virus, DENV3, 1 h, read-out: Viral infectivity inhibition at 60 min co-incubation (maximum)): 66.9% | Time taken to achieve 50% viral infectivity inhibition (DENV-3 [10]; [12]): 25.8 min
